Results taken from patent US9120804B2, “8-substituted 2-amino-[1,2,4] triazolo [1, 5-A] pyrazines as Syk tryrosine kinase inhibitors and GCN2 serin kinase inhibitors” (Merck Patent GmbH, priority 2012, dated 2015).
Counter-ions that a name gives are not always drawn.

Assays:
[1] = biological target: T1, SYK (Homo sapiens, UniProt P43405); test: SYK flash plate assay (enzyme assay); type: biochemical
T1 construct: 2.5 nM SYK, 400 nM Biotin-Aha-Aha-KEDPDYEWPSAKK
How it was run: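 Radiometric Flashplate format: biotinylated peptide substrate (400 nM) and 33P-labelled ATP (10 μM) react with 2.5 nM enzyme for 1 hour at 30 °C in Hepes buffer, pH 7.5. After EDTA quench and washing, counts are taken; staurosporine defines non-specific signal, and IC50 values are derived.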

[2] = biological target: GCN2 (Homo sapiens, UniProt Q9P2K8); test: GCN2 enzyme assay; type: biochemical
Sequence of GCN2 (Q9P2K8 whole entry): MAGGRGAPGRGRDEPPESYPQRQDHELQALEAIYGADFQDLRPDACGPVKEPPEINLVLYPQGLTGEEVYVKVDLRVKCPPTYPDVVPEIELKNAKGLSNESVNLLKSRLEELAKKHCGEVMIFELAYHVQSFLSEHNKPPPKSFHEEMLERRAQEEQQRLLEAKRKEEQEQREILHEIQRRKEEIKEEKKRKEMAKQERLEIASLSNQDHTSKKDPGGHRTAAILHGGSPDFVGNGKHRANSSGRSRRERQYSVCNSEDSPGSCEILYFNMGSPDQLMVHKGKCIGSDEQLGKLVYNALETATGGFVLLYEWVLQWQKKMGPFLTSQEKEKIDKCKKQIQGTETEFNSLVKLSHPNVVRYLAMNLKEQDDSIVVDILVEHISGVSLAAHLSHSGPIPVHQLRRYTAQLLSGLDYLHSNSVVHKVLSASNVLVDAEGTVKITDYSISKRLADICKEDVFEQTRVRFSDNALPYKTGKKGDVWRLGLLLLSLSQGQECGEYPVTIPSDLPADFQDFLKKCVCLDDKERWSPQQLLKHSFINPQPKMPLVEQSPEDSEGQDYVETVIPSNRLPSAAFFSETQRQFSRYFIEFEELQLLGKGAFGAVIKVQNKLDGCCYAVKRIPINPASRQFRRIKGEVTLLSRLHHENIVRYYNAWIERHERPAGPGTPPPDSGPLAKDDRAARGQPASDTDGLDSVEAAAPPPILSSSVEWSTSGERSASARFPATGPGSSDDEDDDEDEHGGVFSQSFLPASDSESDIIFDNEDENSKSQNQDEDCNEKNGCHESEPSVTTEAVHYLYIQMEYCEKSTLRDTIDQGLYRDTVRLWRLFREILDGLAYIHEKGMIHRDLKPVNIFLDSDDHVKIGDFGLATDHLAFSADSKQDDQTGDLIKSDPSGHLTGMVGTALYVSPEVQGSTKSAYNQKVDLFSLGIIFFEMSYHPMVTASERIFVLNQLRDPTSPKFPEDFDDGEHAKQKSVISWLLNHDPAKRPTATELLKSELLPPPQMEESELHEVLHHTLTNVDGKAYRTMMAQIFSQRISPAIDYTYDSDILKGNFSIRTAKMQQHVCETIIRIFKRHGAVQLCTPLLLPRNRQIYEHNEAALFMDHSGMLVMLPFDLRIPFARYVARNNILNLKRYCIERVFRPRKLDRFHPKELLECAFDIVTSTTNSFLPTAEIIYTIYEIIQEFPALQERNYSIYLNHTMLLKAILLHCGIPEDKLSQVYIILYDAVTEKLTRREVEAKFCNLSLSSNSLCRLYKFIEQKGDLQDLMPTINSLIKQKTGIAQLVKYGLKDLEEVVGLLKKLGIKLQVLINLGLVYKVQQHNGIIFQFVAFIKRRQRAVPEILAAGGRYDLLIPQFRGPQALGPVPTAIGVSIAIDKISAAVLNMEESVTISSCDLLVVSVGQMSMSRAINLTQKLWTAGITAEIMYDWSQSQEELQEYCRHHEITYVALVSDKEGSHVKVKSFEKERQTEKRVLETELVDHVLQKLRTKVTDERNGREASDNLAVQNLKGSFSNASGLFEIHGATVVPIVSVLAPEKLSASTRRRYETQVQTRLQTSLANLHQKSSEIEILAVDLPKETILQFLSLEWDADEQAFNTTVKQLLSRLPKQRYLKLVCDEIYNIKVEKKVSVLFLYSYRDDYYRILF

SMILES	IC50 [1]	IC50 [2]
COc1ccc(Nc2nc3c(-c4cnn(C)c4)nccn3n2)cc1OC [C6, (3,4-Dimethoxy-phenyl)-[8-(1-methyl-1H-pyrazol-4-yl)-[1,2,4]triazolo[1,5-a]pyrazin-2yl]-amine]	0.3 to 3 µM	0.3 to 3 µM
COc1cc(Nc2nc3c(N4CCN(C(C)=O)CC4)nccn3n2)cc(OC)c1 [C51, 1-{4-[2-(3,5-dimethoxy-phenylamino)-[1,2,4]triazolo[1,5-a]pyrazin-8-yl]-piperazin-1-yl}-ethanone]	3 to 50 µM	3 to 50 µM
Cn1cc(-c2nccn3nc(Nc4ccc5c(C(C)(C)O)n[nH]c5c4)nc23)cn1 [C72, 2-{6-[8-(1-methyl-1H-pyrazol-4-yl)-[1,2,4]triazolo[1,5-a]pyrazin-2-ylamino]-1H-indazol-3-yl}-propan-2-ol]	< 0.1 µM	0.3 to 3 µM
COc1cccc(Nc2nc3c(-c4cnn(C)c4)nccn3n2)c1 [C8, (3-Methoxy-phenyl)-[8-(1-methyl-1H-pyrazol-4-yl)-[1,2,4]triazolo[1,5-a]pyrazin-2-yl]-amine]	3 to 50 µM	3 to 50 µM
NC(=O)C1(c2ccc(Nc3nc4c(-c5cn[nH]c5)nccn4n3)cc2)CC1 [C66, 1-{4-[8-(1H-pyrazol-4-yl)-[1,2,4]triazolo[1,5-a]pyrazin-2-ylamino]-phenyl}-cyclopropanecarboxylic acid amide]	0.1 to 0.3 µM	3 to 50 µM
CC1(C)C(=O)Nc2cc(Nc3nc4c(N5CCC6(CC(=O)NC6=O)C5)nccn4n3)ccc21 (centres unmarked) [C95, 7-[2-(3,3-dimethyl-2-oxo-2,3-dihydro-1H-indol-6-ylamino)-[1,2,4]triazolo[1,5-a]pyrazin-8-yl]-2,7-diaza-spiro[4.4]nonane-1,3-dione]	< 0.1 µM	3 to 50 µM
CC1(C)C(=O)Nc2cc(Nc3nc4c(N5CC[C@@H](O)C5)nccn4n3)ccc21 [C73, 6-[8-((R)-3-hydroxy-pyrrolidin-1-yl)-[1,2,4]triazolo[1,5-a]pyrazin-2-ylamino]-3,3-dimethyl-1,3-dihydro-indol-2-one]	0.1 to 0.3 µM	3 to 50 µM
COc1cc(Nc2nc3c(N4CCCC(C(=O)NCCO)C4)nccn3n2)cc(OC)c1 (centres unmarked) [C45, 1-[2-(3,5-dimethoxy-phenylamino)-[1,2,4]triazolo[1,5-a]pyrazin-8-yl]-piperidine-3-carboxylic acid (2-hydroxy-ethyl)-amide]	3 to 50 µM	3 to 50 µM
CC1(C)C(=O)Nc2cc(Nc3nc4c(N[C@H]5CCCNC5)nccn4n3)ccc21 [C85, 3,3-dimethyl-6-[8-((S)-piperidin-3-ylamino)-[1,2,4]triazolo[1,5-a]pyrazin-2-ylamino]-1,3-dihydro-indol-2-one]	< 0.1 µM	3 to 50 µM
Cn1cc(-c2nccn3nc(Nc4ccc5c(c4)NC(=O)C5)nc23)cn1 [C60, 6-[8-(1-methyl-1H-pyrazol-4-yl)-[1,2,4]triazolo[1,5-a]pyrazin-2-ylamino]-1,3-dihydro-indol-2-one]	0.3 to 3 µM	0.3 to 3 µM
Cn1cc(-c2nccn3nc(Nc4ccc5cc[nH]c5c4)nc23)cn1 [C111]	0.1 to 0.3 µM	0.3 to 3 µM
CC1(C)C(=O)Nc2cc(Nc3nc4c(N5CC[C@H](N)C5)nccn4n3)ccc21 [C86, 6-[8-((S)-3-amino-pyrrolidin-1-yl)-[1,2,4]triazolo[1,5-a]pyrazin-2-ylamino]-3,3-dimethyl-1,3-dihydro-indol-2-one]	0.3 to 3 µM	3 to 50 µM
CC1(C)C(=O)Nc2cc(Nc3nc4c(-c5ccc(S(C)(=O)=O)cc5)nccn4n3)ccc21 [C70, 6-[8-(4-Methanesulfonyl-phenyl)-[1,2,4]triazolo[1,5-a]pyrazin-2-ylamino]-3,3-dimethyl-1,3-dihydro-indol-2-one]	0.1 to 0.3 µM	0.3 to 3 µM
CC1(C)OC(=O)Nc2cc(Nc3nc4c(-c5cccc6[nH]ncc56)nccn4n3)ccc21 [C120, 7-[8-(1H-indazol-4-yl)-[1,2,4]triazolo[1,5-a]pyrazin-2-ylamino]-4,4-dimethyl-1,4-dihydro-benzo[d][1,3]oxazin-2-one]	< 0.1 µM	0.3 to 3 µM
Cn1cc(-c2nccn3nc(Nc4ccc(S(N)(=O)=O)cc4)nc23)cn1 [C16, 4-[8-(1-Methyl-1H-pyrazol-4-yl)-[1,2,4]triazolo[1,5-a]pyrazin-2-ylamino]-benzenesulfonamide]	0.3 to 3 µM	3 to 50 µM
Cn1cc(-c2nccn3nc(Nc4ccc5c(c4)NC(=O)C5(C)O)nc23)cn1 (centres unmarked) [C71, 3-hydroxy-3-methyl-6-[8-(1-methyl-1H-pyrazol-4-yl)-[1,2,4]triazolo[1,5-a]pyrazin-2-ylamino]-1,3-dihydro-indol-2-one]	0.1 to 0.3 µM	0.3 to 3 µM
Cn1nnc2ccc(Nc3nc4c(-c5ccccc5-c5ccccc5)nccn4n3)cc21 [C29]	0.1 to 0.3 µM	3 to 50 µM

SMILES	IC50 [1]	IC50 [2]
Cn1cc(-c2nccn3nc(Nc4ccc(C(C)(C)O)cc4)nc23)cn1 [C61, 2-{4-[8-(1-methyl-1H-pyrazol-4-yl)-[1,2,4]triazolo[1,5-a]pyrazin-2-ylamino]-phenyl}-propan-2-ol]	0.1 to 0.3 µM	0.3 to 3 µM
CS(=O)(=O)c1ccc(-c2nccn3nc(Nc4ccc(N5CCOCC5)cc4)nc23)cc1 [C38, 8-(4-methylsulfonylphenyl)-N-(4-morpholinophenyl)-[1,2,4]triazolo[1,5-a]pyrazin-2-amine]	0.1 to 0.3 µM	0.3 to 3 µM
Cc1nc2cc(Nc3nc4c(-c5ccc(CN6CCOCC6)cc5)nccn4n3)ccc2[nH]1 [C57, (2-methyl-1H-benzoimidazol-5-yl)-[8-(4-morpholin-4-ylmethyl-phenyl)-[1,2,4]triazolo[1,5-a]pyrazin-2-yl]-amine]	3 to 50 µM	0.3 to 3 µM
Cn1cc(-c2nccn3nc(Nc4cccc(N5CCOCC5)c4)nc23)cn1 [C18, [8-(1-Methyl-1H-pyrazol-4-yl)-[1,2,4]triazolo[1,5-a]pyrazin-2-yl]-(3-morpholin-4-yl-phenyl)-amine]	0.3 to 3 µM	3 to 50 µM
Cc1nc2cc(Nc3nc4c(-c5ccc(S(C)(=O)=O)cc5)nccn4n3)ccc2[nH]1 [C58, [8-(4-methanesulfonyl-phenyl)-[1,2,4]triazolo[1,5-a]pyrazin-2-yl]-(2-methyl-1H-benzoimidazol-5-yl)-amine]	0.3 to 3 µM	0.3 to 3 µM
Cn1cc(-c2nccn3nc(Nc4cccc(S(N)(=O)=O)c4)nc23)cn1 [C14, 3-[8-(1-Methyl-1H-pyrazol-4-yl)-[1,2,4]triazolo[1,5-a]pyrazin-2-ylamino]-benzenesulfonamide]	3 to 50 µM	0.3 to 3 µM
Cn1cc(-c2nccn3nc(Nc4ccc5c(c4)NC(=O)OC5(C)C)nc23)cn1 [C114, 4,4-dimethyl-7-[8-(1-methyl-1H-pyrazol-4-yl)-[1,2,4]triazolo[1,5-a]pyrazin-2-ylamino]-1,4-dihydro-benzo[d][1,3]oxazin-2-one]	< 0.1 µM	0.3 to 3 µM
Cn1cc(Nc2nc3c(-c4cnn(C)c4)nccn3n2)cn1 [C26, (1-Methyl-1H-pyrazol-4-yl)-[8-(1-methyl-1H-pyrazol-4-yl)-[1,2,4]triazolo[1,5-a]pyrazin-2-yl]-amine]	0.3 to 3 µM	3 to 50 µM
Cn1cc(-c2nccn3nc(Nc4ccc5nnn(C)c5c4)nc23)cn1 [C30, (3-Methyl-3H-benzotriazol-5-yl)-[8-(1-methyl-1H-pyrazol-4-yl)-[1,2,4]triazolo[1,5-a]pyrazin-2-yl]-amine]	0.3 to 3 µM	0.3 to 3 µM
CC(C)C(O)c1n[nH]c2cc(Nc3nc4c(-c5cnn(C)c5)nccn4n3)ccc12 (centres unmarked) [C142, 2-methyl-1-{6-[8-(1-methyl-1H-pyrazol-4-yl)-[1,2,4]triazolo[1,5-a]pyrazin-2-ylamino]-1H-indazol-3-yl}-propan-1-ol]	0.1 to 0.3 µM	0.3 to 3 µM
Cn1cc(-c2nccn3nc(Nc4cnn(C5CCNCC5)c4)nc23)cn1 [C28, [8-(1-Methyl-1H-pyrazol-4-yl)-[1,2,4]triazolo[1,5-a]pyrazin-2-yl]-(1-piperidin-4-yl-1H-pyrazol-4-yl)-amine hydrochloride]	3 to 50 µM	0.3 to 3 µM
CC1(C)OC(=O)Nc2cc(Nc3nc4c(N5CCC6(C5)NC(=O)NC6=O)nccn4n3)ccc21 (centres unmarked) [C118, 7-[2-(4,4-dimethyl-2-oxo-1,4-dihydro-2H-benzo[d][1,3]oxazin-7-ylamino)-[1,2,4]triazolo[1,5-a]pyrazin-8-yl]-1,3,7-triaza-spiro[4.4]nonane-2,4-dione]	< 0.1 µM	3 to 50 µM
CN(c1nccn2nc(Nc3ccc4c(c3)NC(=O)C4(C)C)nc12)C1CCOCC1 [C101, 3,3-dimethyl-6-{8-[methyl-(tetrahydro-pyran-4-yl)-amino]-[1,2,4]triazolo[1,5-a]pyrazin-2-ylamino}-1,3-dihydro-indol-2-one]	0.1 to 0.3 µM	3 to 50 µM
Cn1cc(-c2nccn3nc(Nc4ccc(C#N)c(O)c4)nc23)cn1 [C36, 2-Hydroxy-4-[8-(1-methyl-1H-pyrazol-4-yl)-[1,2,4]triazolo[1,5-a]pyrazin-2-ylamino]-benzonitrile]	0.3 to 3 µM	0.3 to 3 µM
COc1cc(Nc2nc3c(N4CCC(N)CC4)nccn3n2)cc(OC)c1 [C50, [8-(4-amino-piperidin-1-yl)-[1,2,4]triazolo[1,5-a]pyrazin-2-yl]-(3,5-dimethoxy-phenyl)-amine]	0.3 to 3 µM	3 to 50 µM
Cn1cc(-c2nccn3nc(Nc4ccc(C5(C#N)CC5)cc4)nc23)cn1 [C63, 1-{4-[8-(1-methyl-1H-pyrazol-4-yl)-[1,2,4]triazolo[1,5-a]pyrazin-2-ylamino]-phenyl}-cyclopropanecarbonitrile]	0.1 to 0.3 µM	0.3 to 3 µM
Cc1nc2cc(Nc3nc4c(-c5ccc(C(=O)N6CCOCC6)cc5)nccn4n3)ccc2[nH]1 [C48, {4-[2-(2-methyl-1H-benzoimidazol-5-ylamino)-[1,2,4]triazolo[1,5-a]pyrazin-8-yl]-phenyl}-morpholin-4-yl-methanone]	3 to 50 µM	0.3 to 3 µM
